# Test results taken from patent US4000269A, “S-(α-substituted-arylmethylthio, -arylmethylsulfinyl, and -arylmethylsulfonyl)methyl phosphorus esters used as insecticides” (priority 1975, dated 1976).
# Like-named read-outs stand apart in the source and are kept apart here.
# Experiments:
# Assay type in all cases: in vivo
# [1] = system: Tarnished Plant Bug (Lygus lineolaris); experiment: A. Tarnished Plant Bug leaf-dip test; conditions: 48 h, read-out: Percent Mortality, Tarnished plant Bug
# Protocol: (§1) Test compounds are prepared as 1000 ppm. solutions in 10 % acetone, 0.2 % Alrodyne 315 , and 89.8 % water. A tenfold dilution is made with 65 % acetone and 35 % water. The primary leaves of Sieva lima bean plants are dipped for 3 to 5 seconds in the test solutions and placed in an exhaust hood to dry. When dry, each leaf is placed in a 4 -inch petri dish with a moist filter paper on the bottom. Ten adult Lygus bugs are aspirated from the stock culture and placed in the petri dish. The dishes are covered and held at 80° F. and 50 % R.H. After 2 days, mortality counts are made.
# [2] = system: Southern Armyworm (Prodenia eridania); experiment: D. Southern Armyworm leaf-dip test; conditions: Spodoptera eridania, 48 h, read-out: Percent Mortality, Southern Armyworm
# Protocol: Compounds are tested at 1000 and 100 ppm. in solution or suspension in 65 % acetone/35 % water. Sieva lima bean primary leaves are dipped for 3 seconds in the test solution and set in a hood on a screen to dry. When dry, each leaf is placed in a 4 -inch petri dish which has a moist filter paper in the bottom and ten third-instar armyworm larvae about 3/8 inch long. The dishes are covered and held at 80° F., and 60 % R.H. After 2 days, mortality counts and estimates of the amount of feeding are made. Compounds showing partial kill and/or inhibition of feeding are held an extra day for further observations.
# [3] = system: Boll Weevil (Anthonomus grandis); experiment: B. Boll Weevil leaf-dip test; conditions: 48 h, read-out: Percent Mortality, Boll Weevil
# Protocol: as §1, with “The first or second true leaf” for “The primary leaves”, “of young cotton” for “of Sieva lima bean”, “plants is” for “plants are”, “test solution” for “test solutions”, “adult boll weevils” for “adult Lygus bugs”, “are removed” for “are aspirated”
# [4] = system: Western Potato Leafhopper (Empoasca abrupta); experiment: G. Western Potato Leafhopper plant-dip test; conditions: 48 h, 2 days, read-out: Percent Mortality, Western Potato Leafhopper
# Protocol: Sieva lima bean plants with the primary leaf expanded to 3 to 4 inches are dipped into 100 or 10 ppm. 50 % acetone/50 % water solutions and set in the hood to dry. A 1 -inch piece of the tip of a treated leaf is cut off and placed in a 4 -inch petri dish with a moist filter paper in the bottom. From 3 to 10 second-instar nymphs are tapped from the culture plants into the test dish and rapidly covered. Mortality counts are made after 2 days at 80° F., and 50 % R.H.
# [5] = system: Two-spotted Spider Mite (Tetranychus urticae); experiment: E. Two-spotted Spider Mite plant-dip test; conditions: 48 h, read-out: Percent Mortality, Two-spotted Spider Mite; for mortality at 100 ppm: 2 days
# Protocol: Sieva lima bean plants with primary leaves 3 to 4 inches long are infested with about 100 adult mites per leaf 4 hours before use in this test. The mite and egg infested plants are dipped for 3 seconds in the same solutions used in the aphid test, and the plants set in the hood to dry. They are held for 2 days at 80° F., 60% R.H., and the adult mite mortality estimated on one leaf under a steroscopic microscope. The other leaf is left on the plant an additional 5 days and then examined at 10 X power to estimate the kill of eggs and of newly hatched nymphs, giving a measure of ovicidal and residual action, respectively.
# Bean Aphid (Aphis fabae) = experiment: C. Bean Aphid spray test; conditions: 48 h, read-out: Percent Mortality, Bean Aphid
# Protocol: Compounds are tested at 100 , 10 and 1 ppm. in solution or suspension in 65 % acetone/35 % water. Two-inch fiber pots each containing a nasturtium plant 2 inches high and infested with about 150 aphids 2 days earlier, are placed on a turntable (4 RPM) and sprayed for two revolutions with a No. 154 DeVilbiss Atomizer at 20 psi. air pressure. The spray tip is held about 6 inches from the plants, and the spray is directed so as to give complete coverage of the aphids and the plants. The sprayed plants are laid on their sides on white enamel trays. Mortality estimates are made after holding for 2 days at 70° F. and 50% R.H.
# [6] = system: Malaria Mosquito (Anopheles quadrimaculatus); experiment: H. Malaria Mosquito Adult Test; conditions: 24 h, adults, 1 day, read-out: Percent Mortality, Malaria Mosquito
# Protocol: Solutions of 65% acetone/35% water containing 10 ppm. of test compound are poured into wide-mouth 2-ounce jars, each containing a microscope slide. The slides are removed from the test solution with forceps and laid horizontally to dry on a wide-mouth 4-ounce bottle. When dry, they are placed in the same 4-ounce bottle and 10 4- to 5-day-old mosquitoes of mixed sexes are added to each bottle. A piece of cotton gauze held on by an elastic band serves as a lid, and wad of cotton soaked in 10% honey solution serves as food. Mortality counts are made after 1 day at 80° F., 50% R.H. (relative humidity) Data obtained with the above procedures are reported in Table II below.
# [7] = system: Mexican Bean Beetle (Epilachna varivestis); experiment: F. Mexican Bean Beetle leaf-dip test; conditions: 48 h, 2 days, read-out: Percent Mortality, Mexican Bean Beetle
# Protocol: Compounds to be tested are made up as 100 or 10 ppm. solutions in 65 % acetone/35 % water. Sieva lima bean leaves are dipped in the test solution and set in the hood to dry. When dry, they are placed in 4 -inch petri dishes which have a moist filter paper in the bottom, and 10 third-instar bean beetles are added to each dish. The dishes are covered and held at 80° F., 60 % R.H. After 2 days, mortality counts and estimates of the amount of feeding are made. Compounds showing kills greater than 75 % are further tested at tenfold dilutions in 65 % acetone/35 % water.
Compound,"mortality at 100 ppm ([1]; 100 ppm., 2 days) [%]",mortality at 100 ppm ([2]; 2 days) [%],"mortality at 1000 ppm ([2]; 1000 ppm., 2 days) [%]","mortality at 100 ppm ([3]; 100 ppm., 2 days) [%]",mortality at 10 ppm [4] [%],mortality at 100 ppm [4] [%],mortality at 100 ppm [5] [%],mortality at 300 ppm [5] [%],"mortality at 1 ppm (Bean Aphid (Aphis fabae); 1 ppm., 2 days) [%]",mortality at 10 ppm (Bean Aphid (Aphis fabae); 2 days) [%],mortality at 100 ppm (Bean Aphid (Aphis fabae); 2 days) [%],mortality at 10 ppm [6] [%],mortality at 100 ppm [7] [%],mortality at 100 ppm [1] [%],mortality at 1000 ppm [2] [%],mortality at 100 ppm [3] [%],mortality at 1 ppm (Bean Aphid (Aphis fabae)) [%],mortality at 10 ppm [7] [%]
CCOP(=S)(OCC)SCSC(C)(C)c1cc(Cl)ccc1Cl [drawing 11],0,100,100,50,50,100,90,100,50,100,100,30,0,–,–,–,–,–
COP(=S)(OC)SCSC(C)(C)c1cccc(Cl)c1Cl [drawing 12],–,0,–,–,–,100,0,0,–,–,–,90,60,0,100,0,75,–
CCOP(=S)(OCC)SCSC(C)c1ccccc1 (centres unmarked) [drawing 7],70,30,100,0,100,100,0,100,100,100,100,100,100,–,–,–,–,0
CCCSP(=O)(OCC)SCSC(C)(C)c1ccccc1 (centres unmarked) [drawing 16],0,100,100,0,0,100,100,100,90,100,100,0,80,–,–,–,–,80
CCOP(=S)(OCC)SCSC(C)(CC)c1ccccc1 (centres unmarked) [drawing 14],0,0,100,0,0,100,0,50,100,100,100,70,0,–,–,–,–,–
COP(=S)(OC)SCSC(C)(C)c1ccc(Br)cc1 [drawing 19],40,100,100,100,0,100,100,100,100,100,100,75,–,–,–,–,–,0
COP(=S)(OC)SCSC(C)(C)c1ccc(Cl)cc1 [drawing 22],0,100,100,100,0,100,100,100,100,100,100,100,50,–,–,–,–,0
COP(=O)(SC)SCSC(C)(C)c1ccc(Cl)cc1 (centres unmarked) [drawing 23],0,0,100,90,0,100,0,50,95,100,100,0,40,–,–,–,–,0
CCOP(=S)(OCC)SCSC(C)(C)c1ccc(Cl)cc1 [drawing 18],0,100,100,0,100,100,100,100,90,100,100,75,100,–,–,–,–,40
CCOP(=S)(OCC)SCSC(CC)(CC)c1ccccc1 [drawing 15],0,0,100,0,–,0,–,0,0,100,100,0,90,–,–,–,–,0
